Reference: patent US11421025B2, “Treatment of IL-17A diseases” (OSAKA UNIVERSITY, priority 2013, dated 2022)
Ends that are not written are not given here.

Legend:
Format in all cases: in vivo
[1] = test system: DBA/1 mouse, arthritis caused by Type II collagen; assay: Type II collagen arthritis model mouse, human IL-17A peptide vaccines; conditions: Experiment 8, KLH conjugated peptide vaccines (FIG. 22B)
Protocol: A vaccine containing a peptide consisting of human IL-17A1 epitope, human IL-17A2 epitope or human IL-17A4 epitope was administered to femoral muscle of each of the following 6-week-old male mice (KLH conjugated) 3 times at 2-week intervals (120 μg/60 μl×1 site/administration). Type II collagen and CFA (complete Freund's adjuvant) were administered at 28 days from the first vaccine administration, and Type II collagen and IFA (incomplete Freund's adjuvant) were administered at 42 days from the first vaccine administration, to induce arthritis. Thereafter, the level of arthritis was observed 3 times per week and scored.
H17 (human IL-17A1 epitope) group: 3 mice
AF4 (human IL-17A4 epitope) group: 3 mice
AF5 (human IL-17A2 epitope) group: 3 mice

[2] = test system: human IL-17A epitope (BSA conjugate); assay: Antibody titer by ELISA after human IL-17A epitope vaccines in BALB/c mouse; conditions: 6 weeks from the first administration, 3 times at 2-week intervals (FIG. 18, 20, 21)
Protocol: Production of plate: Mouse IL-17A1 epitope+BSA conjugate and mouse IL-17A2 epitope+BSA conjugate were dispensed to a 96 well plate at a concentration of 10 μg/ml, and stood at 4° C. overnight. Recombinant mouse IL-17A was dispensed to a 96 well plate at a concentration of 0.25 μg/ml and stood at 4° C. overnight.
The aforementioned plate was washed once with PBS (200 μl), and blocked with 5% skim milk in PBS for 2 hr. The primary antibody (mouse antiserum) was serially diluted with 5% skim milk in PBS, applied by 50 μl to a 96 well plate, and incubated at 4° C. overnight.
The aforementioned plate was washed 7 times with PBS-T (0.05% Tween) (200 μl), the secondary antibody (anti-mouse IgG Ab-HRP-labeled) was diluted 1/1000 (5% skim milk), added by 50 μl, and incubated at ambient temperature for 3 hr. The plate was washed 3 times with PBS-T (0.05% Tween) (200 μl), TMB solution (50 μl) was added, shaded and incubated at ambient temperature for 30 min. 0.5N H2SO4 (50 μl) was added to discontinue the reaction and absorbance was measured at 450 nm.
(§1) A vaccine containing a peptide consisting of the following human IL-17A1 epitope (KLH conjugated) corresponding to mouse IL-17A1 epitope (RPSDYLNR (SEQ ID NO: 5)) was produced, and intradermally administered to BALB/c mouse 3 times at 2-week intervals. The serum antibody titer was measured at 6 weeks from the first administration according to the method described in Example 1.
In addition, a vaccine containing a peptide consisting of two kinds of epitopes (human IL-17A2 epitope, human IL-17A3 epitope) of the following human IL-17A (KLH conjugated) was produced, and intradermally administered to BALB/c mouse 3 times at 2-week intervals. The serum antibody titer was measured at 6 weeks from the first administration according to the method described in Example 1.
Furthermore, a vaccine containing a peptide consisting of the following human IL-17A4, which is a partial sequence of human IL-17A1 epitope (KLH conjugated), was produced. […]

[3] = molecular target: T1, mouse IL-17A1 epitope (BSA conjugate) (Mus musculus, UniProt Q62386); assay: ELISA intersection reactivity of antiserum with mouse IL-17A1 epitope; conditions: serum of BALB/c mouse immunized with human epitope vaccine (FIG. 19A)
T1 construct: BSA-IL-17A1 (RPSDYLNR) conjugate (No5 BSA conjugate)
Protocol: The primary antibody (mouse antiserum) was diluted 10-fold, and then serially diluted by 5-fold and used. […]
as §1

Substance | clinical score of arthritis [1] | serum antibody titer [2] | intersection reactivity of serum with mouse IL-17A1 epitope [3]
human IL-17A4 epitope: vaccine containing a peptide consisting of human IL-17A4 epitope SDYYN (SEQ ID NO: 11), KLH conjugated (also: KLH conjugated; listed as Homo sapiens) | suppressive effect on the onset and progression of arthritis | increased | 
human IL-17A1 epitope: vaccine containing a peptide consisting of human IL-17A1 epitope RSSDYYNR (SEQ ID NO: 1), KLH conjugated (also: KLH conjugated; listed as Homo sapiens) | suppressive effect on the onset and progression of arthritis | increased | showed intersection reactivity
human IL-17A2 epitope: vaccine containing a peptide consisting of human IL-17A2 epitope ADGNVDYHMNSVPIQQE (SEQ ID NO: 8), KLH conjugated (also: KLH conjugated; listed as Homo sapiens) | suppressive effect on the onset and progression of arthritis | increased | 
